Test results reported in BindingDB's records for doi:10.1016/j.bioorg.2017.01.015 (Universiti Teknologi MARA (UiTM), 2017).

What follows are compounds tested against T1, Beta-glucuronidase (Homo sapiens, UniProt P08236) (assay: β-Glucuronidase Assay).
T1 sequence (P08236 whole entry): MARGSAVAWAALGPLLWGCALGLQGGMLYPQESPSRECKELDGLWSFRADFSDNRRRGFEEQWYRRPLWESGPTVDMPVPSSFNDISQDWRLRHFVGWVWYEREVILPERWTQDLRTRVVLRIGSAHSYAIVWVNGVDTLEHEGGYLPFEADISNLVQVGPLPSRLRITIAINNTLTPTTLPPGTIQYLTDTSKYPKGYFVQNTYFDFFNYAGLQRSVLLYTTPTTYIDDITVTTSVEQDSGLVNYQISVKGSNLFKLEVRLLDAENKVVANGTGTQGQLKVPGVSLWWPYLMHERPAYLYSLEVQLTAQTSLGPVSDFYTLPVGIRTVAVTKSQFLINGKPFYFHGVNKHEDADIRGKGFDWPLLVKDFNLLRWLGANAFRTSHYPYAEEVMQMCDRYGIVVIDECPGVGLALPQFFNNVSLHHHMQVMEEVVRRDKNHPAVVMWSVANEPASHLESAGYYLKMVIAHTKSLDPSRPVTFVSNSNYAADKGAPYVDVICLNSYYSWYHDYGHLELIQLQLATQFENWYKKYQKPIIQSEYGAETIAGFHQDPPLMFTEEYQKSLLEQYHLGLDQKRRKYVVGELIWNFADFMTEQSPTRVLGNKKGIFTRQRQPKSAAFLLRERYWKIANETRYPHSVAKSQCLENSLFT
Procedure: 250 μL was the volume of total reaction. Reaction mixture containing 5 μL of test compound solution, 185 μL of 0.1 M acetate buffer and 10 μL of enzyme solution were incubated for 30 min at 37 °C. […] To avoid precipitation compound concentration were decreased and the volume of reaction was high (200 μL). Precipitation probability was less thus addition of detergents was not needed.

| Structure (SMILES) | IC50 [µM] |
| --- | --- |
| COc1ccccc1-c1nnc(-c2ccc(C(=O)NNS(=O)(=O)c3ccccc3Br)cc2)o1 [2-Bromo-N'-(4-(5-(2-methoxyphenyl)-1,3,4-oxadiazol-2yl)benzoyl)benzenesulfonohydrazide (7)] | 38.5 |
| COc1ccccc1-c1nnc(-c2ccc(C(=O)NNS(=O)(=O)c3ccccc3F)cc2)o1 [2-Fluoro-N'-(4-(5-(2-methoxyphenyl)-1,3,4-oxadiazol-2yl)benzoyl)benzenesulfonohydrazide (4)] | 10.3 |
| COc1ccccc1-c1nnc(-c2ccc(C(=O)NNS(=O)(=O)c3cccc(Br)c3)cc2)o1 [3-Bromo-N'-(4-(5-(2-methoxyphenyl)-1,3,4-oxadiazol-2yl)benzoyl)benzenesulfonohydrazide (9)] | 58.2 |
| COc1ccccc1-c1nnc(-c2ccc(C(=O)NNS(=O)(=O)c3cccc(F)c3)cc2)o1 [3-Fluoro-N'-(4-(5-(2-methoxyphenyl)-1,3,4-oxadiazol-2yl)benzoyl)benzenesulfonohydrazide (5)] | 28.1 |
| COc1ccccc1-c1nnc(-c2ccc(C(=O)NNS(=O)(=O)c3ccc(C)cc3)cc2)o1 [4-methyl-N'-(4-(5-(2-methoxyphenyl)-1,3,4-oxadiazol-2-yl)benzoyl)-4-methylbenzenesulfonohydrazide (15)] | 98.1 |
| COc1ccccc1-c1nnc(-c2ccc(C(=O)NNS(=O)(=O)c3ccccc3C)cc2)o1 [N'-(4-(5-(2-methoxyphenyl)-1,3,4-oxadiazol-2-yl)benzoyl)-2-methylbenzenesulfonohydrazide (14)] | 24.3 |
| COc1ccccc1-c1nnc(-c2ccc(C(=O)NNS(=O)(=O)c3ccccc3[N+](=O)[O-])cc2)o1 [N'-(4-(5-(2-methoxyphenyl)-1,3,4-oxadiazol-2-yl)benzoyl)-2-nitrobenzenesulfonohydrazide (10)] | 44.7 |
| COc1ccccc1-c1nnc(-c2ccc(C(=O)NNS(=O)(=O)c3cccc([N+](=O)[O-])c3)cc2)o1 [N'-(4-(5-(2-methoxyphenyl)-1,3,4-oxadiazol-2-yl)benzoyl)-3-nitrobenzenesulfonohydrazide (12)] | 89.3 |
